These results are taken from ChEMBL document CHEMBL3046606, “Synthesis and antifungal activity of novel sulfone derivatives containing 1,3,4-oxadiazole moieties” (Molecules, 2011).

The experiment has as its system Cytospora. Kind of experiment: Antifungal activity against Cytospora mandshurica at 50 ug/ml after 5 days by poison plate technique. The note with it: 120 h. The class given is functional.

Turning to `COc1ccccc1-c1nnc(S(C)(=O)=O)o1`, the inhibition (as a rule, the drop in the measured response relative to a control, in per cent) at 50 µg/mL was 91.3%.

Take `Cc1ccccc1-c1nnc(S(C)(=O)=O)o1`: the inhibition at 50 µg/mL amounted to 99.3%.
